{"source": "patent US9464326B2", "about": "“Total and phosphorylated IL-1 receptor-associated kinase-1 and IL-1 receptor-associated kinase-4 as a biomarker for cancer progression and chemotherapy resistance” (University of Maryland, Baltimore, priority 2012, dated 2016)", "key": {"patient T-ALL cells": {"tested_on": "patient T-ALL cells", "test": "Western blot of patient T-ALL samples from treated NSG mice", "type": "in vivo", "method": "CCRF-CEM (2×10^6) cells were injected intravenously (i.v.) into female NOD.Cg-Prkdc^scid Il2rg^tm1WJl/SzJ IL2RG (NSG) mice (Jackson Laboratories, Bar Harbor, Me.). […] In some experiments mice were injected i.v. with TLR1-TLR2 ligand (2.5 μg) two days after injecting cells. In other experiments mice were injected intraperitoneally (i.p.) with IRAK-1,-4 inhibitor (10 mg/kg) 3, 6, and 9 days (CCRF-CEM cells) or 7, 10, and 13 days (patient T-ALL cells) after detecting CD7^+ T-ALL cells in circulation. The numbers of T-ALL cells in the bone marrow, spleen, liver, and in circulation were determined by staining cells with anti-human CD7 and/or CD5. To compare T-ALL numbers between groups, 10 μl of calibration microbeads (BD Pharmingen) were added to 50 μl of blood (or marrow or spleen suspensions) and the flow cytometry instrument gates were set to count a constant number of beads.\nThe levels of p-mTOR and p-p65 were also examined in patient T-ALL samples obtained from mice treated with IRAK-1,-4 inhibitor or DMSO."}, "CCRF-CEM cells": {"tested_on": "CCRF-CEM cells", "test": "Cell number and apoptosis assays", "type": "cell-based, human", "details": "5 uM, 24-96 hours", "method": "TLR ligands were diluted 2-fold. Cell lines (25-40×10^3/well) were cultured for 54 hours, whereas fresh patient-derived T-ALL cells (200×10^3/well) were cultured for 30 hours prior to adding [^3H]-thymidine for 18 hours. After this time point, cells were harvested with a Packard Filter-Mate-96 cell harvester (Perkin Elmer, Waltham, Mass., USA) and counted on Packard Top Count-NXT (Perkin Elmer, Waltham, Mass., USA). Results were expressed as average counts per minute (cpm). In some experiments CCRF-CEM cells were pre-treated with TLR1-TLR2 ligand (Pam3CysK4; 2.5 ug/ml) for 48 hrs, washed, and then cultured in the presence of varying concentrations of FBS. Forty-eight hours later, proliferation (±SD) was determined by ^3H-thymidine incorporation. Alternatively, apoptosis was measured by flow cytometry after staining cells with Annexin-V (BD Pharmingen, San Diego, Calif., USA) and propidium iodide (Sigma). Cell number was counted under microscopy by staining cells with trypan blue.\nCCRF-CEM cells were treated with IRAK-1,-4 inhibitor for 24, 48, 72, and 96 hours.\nThe T-ALL cell line CCRF-CEM was cultured in the presence of 0, 1.2, 5, 10, and 20 μM IRAK-1,-4 inhibitor. (FIG. 23). To each concentration of IRAK-1,-4 inhibitor titrating doses of ABT-737 (1000→15 nM) vincristine, VS (10→0.1 nM), and paclitaxol, PAC (100→1.5 nM). […] Apoptosis was measure 48 hours later by staining cells with 7AAD and analyzed by flow cytometry."}, "A375 melanoma cells": {"tested_on": "A375 melanoma cells", "test": "Western blot of cleaved PARP and caspase-3", "type": "cell-based, human", "details": "for levels of cleaved PARP and caspase-3: 48 hrs, FIG. 8D", "method": "FIG. 8. […] (A) A375 and Malme-3M melanoma cells were cultured with or without 2.5 μM of IRAK-1,-4 and in the presence varying concentrations of vinblastine, cisplatin or 5′ Fluorouracil. Forty-eight hours later apoptosis was evaluated by staining cells with annexin-V and propidium iodide and analyzed by flow cytometry. (B) A375 cells were transfected via electroporation with siRNA-IRAK-1,-4. IRAK-1 protein levels were examined by Western blotting. […], A375-psiRNA-hIRAK-1, A375-psiRNA-hIRAK-4, or cells expressing both psiRNA-hIRAK-1 and -4 were cultured in the presence of vinblastine (100 nmol/L) for 48 hours and apoptosis was examined by flow cytometry. (C) A375 melanoma cells were cultured in the presence of vehicle alone (DMSO) or various concentrations of IRAK-1,-4. Forty-eight hours later cell lysates were used to analyze the expression of levels of cleaved PARP or caspase-3 by Western blots. (D) A375 melanoma cells were cultured with or without 2.5 μM of IRAK.-1,-4 and in the presence or absence of vinblastine for 48 hrs. PARP and caspase-3 levels were determined by Western blot.\nTotal cell extracts were prepared from melanoma cells. […] Melanoma tissue arrays were purchased from US Biomax, Inc (Rockville, Md.). For immunohistochemical staining samples were stained with mouse monoclonal anti-human phosphor-IRAK.-4 antibody (Abnova; dilution, 3.5 μg/ml) or normal mouse serum. Tissue histology sections (5-μm-thick) were deparaffinized, hydrated, heated in boiling 10 mmol/L sodium citrate (pH 6.0), for antigen retrieval, for 30 min and washed in Tris buffer. Peroxide blocking was done with 3% […] in methanol at room temperature for 15 min, followed by 10% fetal bovine serum in TBS-t for 30 min at room temperature. Primary antibody incubation was done overnight at 4° C. Secondary antibody incubation with horse anti-mouse (1:200; Vector Laboratories, Burlingame, Calif.) was done for 1 hr, followed by application of diaminobenzidine chromogen for 5 min. The slides were then counterstained with hematoxylin and topped with a coverslip. IHC specimens were analyzed using “quick score” system in which the intensity of the immunohistochemical reaction was scored by multiplying the intensity 1 (weak), 2 (moderate), and 3 (strong) and the proportion of cells staining positively 0 (<10%), 1 (10-25%), 2 (26-50%), 3 (51-75%) or 4 (>75%)."}, "CCRF-CEM T-ALL cells": {"tested_on": "CCRF-CEM T-ALL cells", "test": "Antibody (protein) array of apoptosis-related proteins", "details": "IRAK-1,-4 inhibitor vs DMSO, 72 hours, normalised to GAPDH", "protocol": "We also used a protein array from Full Moon Biosystems (Sunnyvale, Calif., USA). For these experiments, purified T-ALL cells were incubated for 48 hours in the presence of IRAK-1,-4 inhibitor (5 μM) or an equal volume of vehicle (DMSO). Then, total protein was extracted, and the levels of various proteins were measured according to the manufacturer's protocol."}}, "data": [{"compound": "O=C(Nc1nc2ccccc2n1CCN1CCOCC1)c1cccc([N+](=O)[O-])c1", "note": "[IRAK-1,-4 inhibitor]", "values": [{"measurement": "p-mTOR levels", "setting": "patient T-ALL cells; patient sample #810 (barely detectable p-IRAK-4), treated in vivo", "value": "did not show changes"}, {"measurement": "reduction of p-p65 levels", "setting": "patient T-ALL cells; patient samples #825 and #828 from treated NSG mice", "value": "two-fold"}, {"measurement": "number of viable cells", "setting": "CCRF-CEM cells; FIG. 14B", "value": "maintained a relatively constant number of viable cells"}, {"measurement": "apoptosis (sub-G1 phase, Annexin V)", "setting": "CCRF-CEM cells; FIG. 14D", "value": "did not induce apoptosis"}, {"measurement": "levels of cleaved PARP and caspase-3", "setting": "A375 melanoma cells; 2.5 μmol/L IRAK-1,-4 inhibitor combined with vinblastine", "value": "increased the levels"}, {"measurement": "active caspase-3", "setting": "A375 melanoma cells; 10 μM, 48 h, FIG. 8C", "value": "detected"}, {"measurement": "cleaved PARP", "setting": "A375 melanoma cells; concentration-dependent, 48 h, FIG. 8C", "value": "Enhanced accumulation"}, {"measurement": "levels of cleaved PARP and caspase-3", "setting": "A375 melanoma cells; single agent alone", "value": "little effect"}, {"measurement": "Fold Change: AFX(Ab-197)", "setting": "CCRF-CEM T-ALL cells", "value": "−2.62", "unit": "fold"}, {"measurement": "Fold Change: AFX(Phospho-Ser 97)", "setting": "CCRF-CEM T-ALL cells", "value": "−2.03", "unit": "fold"}, {"measurement": "Fold Change: BAD(Ab-112)", "setting": "CCRF-CEM T-ALL cells", "value": "−1.76", "unit": "fold"}, {"measurement": "Fold Change: BAD(Phospho-Ser112)", "setting": "CCRF-CEM T-ALL cells", "value": "−2.44", "unit": "fold"}, {"measurement": "Fold Change: BCL-XL(Phospho-Ser62)", "setting": "CCRF-CEM T-ALL cells", "value": "−2.42", "unit": "fold"}, {"measurement": "Fold Change: CDC2(Phospho-Tyr15)", "setting": "CCRF-CEM T-ALL cells", "value": "−2.33", "unit": "fold"}, {"measurement": "Fold Change: FKHR(Ab-319)", "setting": "CCRF-CEM T-ALL cells", "value": "−2.54", "unit": "fold"}, {"measurement": "Fold Change: FKHRL1(Ab-253)", "setting": "CCRF-CEM T-ALL cells", "value": "−2.36", "unit": "fold"}, {"measurement": "Fold Change: FKHRL1(Phospho-Ser253)", "setting": "CCRF-CEM T-ALL cells", "value": "−2.53", "unit": "fold"}, {"measurement": "Fold Change: GSK3 alpha(Phospho-Ser21)", "setting": "CCRF-CEM T-ALL cells", "value": "−2.13", "unit": "fold"}, {"measurement": "Fold Change: HSP27(Phospho-Ser15)", "setting": "CCRF-CEM T-ALL cells", "value": "−2.20", "unit": "fold"}, {"measurement": "Fold Change: IKB-alpha(Ab-32/36)", "setting": "CCRF-CEM T-ALL cells", "value": "−1.96", "unit": "fold"}, {"measurement": "Fold Change: IKB-alpha(Phospho-Ser32/Phospho-Ser36)", "setting": "CCRF-CEM T-ALL cells", "value": "−2.95", "unit": "fold"}, {"measurement": "Fold Change: IRS-1(Phospho-Ser639)", "setting": "CCRF-CEM T-ALL cells", "value": "−2.37", "unit": "fold"}, {"measurement": "Fold Change: JAK2(Phospho-Tyr221)", "setting": "CCRF-CEM T-ALL cells", "value": "−2.05", "unit": "fold"}, {"measurement": "Fold Change: NFKB-p65(Ab-435)", "setting": "CCRF-CEM T-ALL cells", "value": "−1.39", "unit": "fold"}, {"measurement": "Fold Change: NFKB-p65(Phospho-Thr435)", "setting": "CCRF-CEM T-ALL cells", "value": "−2.39", "unit": "fold"}, {"measurement": "Fold Change: NFKB-p100/p52(Phospho-Ser869)", "setting": "CCRF-CEM T-ALL cells", "value": "−2.50", "unit": "fold"}, {"measurement": "Fold Change: NFKB-p105/p50(Phospho-Ser337)", "setting": "CCRF-CEM T-ALL cells", "value": "−4.06", "unit": "fold"}, {"measurement": "Fold Change: PTEN(Phospho-Ser380)", "setting": "CCRF-CEM T-ALL cells", "value": 1.35, "unit": "fold"}, {"measurement": "Fold Change: Raf1(Phospho-Ser338)", "setting": "CCRF-CEM T-ALL cells", "value": "−2.46", "unit": "fold"}, {"measurement": "Fold Change: STAT1(Phospho-Ser727)", "setting": "CCRF-CEM T-ALL cells", "value": "−2.17", "unit": "fold"}, {"measurement": "Fold Change: STAT3(Phospho-Ser727)", "setting": "CCRF-CEM T-ALL cells", "value": "−2.11", "unit": "fold"}, {"measurement": "Fold Change: p44/42 MAP Kinase(Phospho-Tyr204)", "setting": "CCRF-CEM T-ALL cells", "value": "−2.24", "unit": "fold"}, {"measurement": "Fold Change: p53(Ab-46)", "setting": "CCRF-CEM T-ALL cells", "value": "−1.39", "unit": "fold"}, {"measurement": "Fold Change: p53(Phospho-Ser46)", "setting": "CCRF-CEM T-ALL cells", "value": "−2.27", "unit": "fold"}]}]}
